Laboratory results from PubChem BioAssay (NCI).
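Values below derive from 48-hour exposures of cells grown in 96-well plates, with endpoints linearly interpolated between the two concentrations bracketing the appropriate inhibition level. TGI marks complete inhibition of growth.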

Tests used:
Test in all cases: NCI-60 cell line screen, 48 h
NCI-H460 lung = test system: NCI-H460 lung
HOP-92 NSCLC = test system: HOP-92 NSCLC
NCI-H23 lung = test system: NCI-H23 lung
SNB-19 CNS = test system: SNB-19 CNS
SR leukemia = test system: SR leukemia
HT29 colon = test system: HT29 colon
OVCAR-5 ovarian = test system: OVCAR-5 ovarian
SW-620 colon = test system: SW-620 colon
PC-3 prostate = test system: PC-3 prostate
MOLT-4 leukemia = test system: MOLT-4 leukemia
MCF7 breast = test system: MCF7 breast
SN12C renal = test system: SN12C renal
UACC-257 melanoma = test system: UACC-257 melanoma
MALME-3M melanoma = test system: MALME-3M melanoma
SF-295 CNS = test system: SF-295 CNS
UO-31 renal = test system: UO-31 renal
BT-549 breast = test system: BT-549 breast
EKVX NSCLC = test system: EKVX NSCLC
M14 melanoma = test system: M14 melanoma
NCI-H226 lung = test system: NCI-H226 lung
COLO 205 colon = test system: COLO 205 colon
CAKI-1 renal = test system: CAKI-1 renal
MDA-MB-231 breast = test system: MDA-MB-231 breast
MDA-N = test system: MDA-N
786-0 renal = test system: 786-0 renal
OVCAR-8 ovarian = test system: OVCAR-8 ovarian
HCT-116 colon = test system: HCT-116 colon
CCRF-CEM leukemia = test system: CCRF-CEM leukemia
SK-MEL-28 melanoma = test system: SK-MEL-28 melanoma
HCT-15 colon = test system: HCT-15 colon
HOP-62 NSCLC = test system: HOP-62 NSCLC
KM12 colon = test system: KM12 colon
DU-145 prostate = test system: DU-145 prostate
ACHN renal = test system: ACHN renal
UACC-62 melanoma = test system: UACC-62 melanoma
HCC-2998 colon = test system: HCC-2998 colon
SF-268 CNS = test system: SF-268 CNS
TK-10 renal = test system: TK-10 renal
MDA-MB-435 = test system: MDA-MB-435
HS 578T breast = test system: HS 578T breast
A498 renal = test system: A498 renal
K-562 leukemia = test system: K-562 leukemia
NCI-H522 lung = test system: NCI-H522 lung
OVCAR-3 ovarian = test system: OVCAR-3 ovarian
T-47D breast = test system: T-47D breast
RPMI-8226 leukemia = test system: RPMI-8226 leukemia
LOX IMVI melanoma = test system: LOX IMVI melanoma
IGROV1 ovarian = test system: IGROV1 ovarian
SK-MEL-2 melanoma = test system: SK-MEL-2 melanoma
A549 NSCLC = test system: A549 NSCLC
SK-OV-3 ovarian = test system: SK-OV-3 ovarian
SK-MEL-5 melanoma = test system: SK-MEL-5 melanoma
SNB-75 CNS = test system: SNB-75 CNS
NCI/ADR-RES ovarian = test system: NCI/ADR-RES ovarian
U251 CNS = test system: U251 CNS
OVCAR-4 ovarian = test system: OVCAR-4 ovarian

Measured: TGI

COC12OC3(C4OC41)C(C(=O)O[C@H]3CO[Si](C)(C)C(C)(C)C)C2C(=O)Oc1ccccc1 (stereo partly specified)
> 100 µM: NCI-H460 lung | HOP-92 NSCLC | NCI-H23 lung | SNB-19 CNS | SR leukemia | HT29 colon | OVCAR-5 ovarian | SW-620 colon | PC-3 prostate | MOLT-4 leukemia | MCF7 breast | SN12C renal | UACC-257 melanoma | MALME-3M melanoma | SF-295 CNS | UO-31 renal | BT-549 breast | EKVX NSCLC | M14 melanoma | NCI-H226 lung | COLO 205 colon | CAKI-1 renal | MDA-MB-231 breast | MDA-N | 786-0 renal | OVCAR-8 ovarian | HCT-116 colon | CCRF-CEM leukemia | SK-MEL-28 melanoma | HCT-15 colon | HOP-62 NSCLC | KM12 colon | DU-145 prostate | ACHN renal | UACC-62 melanoma | HCC-2998 colon | SF-268 CNS | TK-10 renal | MDA-MB-435 | HS 578T breast | A498 renal | K-562 leukemia | NCI-H522 lung | OVCAR-3 ovarian | T-47D breast | RPMI-8226 leukemia | LOX IMVI melanoma | IGROV1 ovarian | SK-MEL-2 melanoma | A549 NSCLC | SK-OV-3 ovarian | SK-MEL-5 melanoma | SNB-75 CNS | NCI/ADR-RES ovarian | U251 CNS | OVCAR-4 ovarian
